The subject of this test is P388 leukemia ip, CD2F1 mice, survival T/C. Put plainly: NCI In Vivo Anticancer Drug Screen. Data for tumor model P388 Leukemia (intraperitoneal) in CD2F1 (CDF1) mice. As to conditions: endpoint: median survival time, higher = longer survival. The procedure, abridged: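 Mice carrying the transplanted tumor received test compound or vehicle. Survival was recorded in each group, and the value is the treated-group measurement divided by that of the vehicle-treated control group.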

Setting [1] is: dose: 60.0 mg/kg/injection, schedule: Q01DX005 (ip), vehicle: saline with Tween-80.
[2] abbreviates: dose: 120.0 mg/kg/injection, schedule: Q01DX005 (ip), vehicle: saline with Tween-80.
Setting [3] is: dose: 240.0 mg/kg/injection, schedule: Q01DX005 (ip), vehicle: saline with Tween-80.
[4] abbreviates: dose: 50.0 mg/kg/injection, schedule: Q01DX005 (ip), vehicle: saline with Tween-80.
The mark [5] stands for this setting: dose: 100.0 mg/kg/injection, schedule: Q01DX005 (ip), vehicle: saline with Tween-80.
[6] abbreviates: dose: 100.0 mg/kg/injection, schedule: Q04DX003 (ip), vehicle: saline.
Setting [7] is: dose: 12.5 mg/kg/injection, schedule: Q01DX005 (ip), vehicle: saline.
Where [8] appears, read: dose: 25.0 mg/kg/injection, schedule: Q01DX005 (ip), vehicle: saline.
Setting [9] is: dose: 50.0 mg/kg/injection, schedule: Q01DX005 (ip), vehicle: saline.
[10] abbreviates: dose: 50.0 mg/kg/injection, schedule: Q01DX009 (ip), vehicle: saline with Tween-80.
Setting [11] is: dose: 100.0 mg/kg/injection, schedule: Q01DX009 (ip), vehicle: saline with Tween-80.
[12] abbreviates: dose: 200.0 mg/kg/injection, schedule: Q01DX009 (ip), vehicle: saline with Tween-80.

Values joined by “and” are separate entries in the source; they are usually repeats but may differ in a detail not shown here. Identical values can stand only once. Toxic doses and inconclusive results are not listed.

The record followed here is PubChem BioAssay AID330 (DTP/NCI, 2004).

As to `COc1cccc2c1C(=O)c1c(O)c3c(c(O)c1C2=O)[C@@H](OC)[C@@](O)(C(=O)CO)C[C@@H]3OC1CC(N)C(O)C(C)O1` (some centres undefined), the T/C is, setting by setting: (dose: 3.13 mg/kg/injection, schedule: Q04DX003 (ip), vehicle: water) 108 % of control and 123 % of control; (dose: 12.5 mg/kg/injection, schedule: Q04DX003 (ip), vehicle: water) 115 % of control; (dose: 25.0 mg/kg/injection, schedule: Q04DX003 (ip), vehicle: water) 106 % of control and 115 % of control; (dose: 50.0 mg/kg/injection, schedule: Q04DX003 (ip), vehicle: water) 104 % of control.

In the case of `CN1c2ccc(C=O)cc2Sc2cc(C=O)ccc21`, the T/C by setting is: under setting [1], 91 % of control; under setting [2], 91 % of control; under setting [3], 90 % of control.

`CC1(C)c2ccccc2-c2nc3ccccc3cc2C1N1CCOCC1` (centres undefined): the T/C under setting [4] is 92 % of control; the T/C under setting [5] is 104 % of control; the T/C (dose: 200.0 mg/kg/injection, schedule: Q01DX005 (ip), vehicle: saline with Tween-80) is 101 % of control.

With `[Cl][Sn]1([Cl])[N]2CCCCC2C2CCCC[N]21` (centres undefined), the T/C is 97 % of control (dose: 100.0 mg/kg/injection, schedule: Q04DX003 (ip), vehicle: saline with Tween-80) and 99 % of control (dose: 200.0 mg/kg/injection, schedule: Q04DX003 (ip), vehicle: saline with Tween-80).

Consider `CCCCCCC[CH2][Sn]([Cl])([Cl])[Cl]`, for which the T/C under setting [6] was 98 % of control; the T/C (dose: 200.0 mg/kg/injection, schedule: Q04DX003 (ip), vehicle: saline) is 102 % of control; the T/C (dose: 400.0 mg/kg/injection, schedule: Q04DX003 (ip), vehicle: saline) is 104 % of control.

`CCN(CC)CCCC(C)n1c2nc(=O)[nH]c(=O)c-2nc2cc(Cl)ccc21` (centres undefined): the T/C is, setting by setting: under setting [7], 98 % of control; under setting [8], 104 % of control; under setting [9], 117 % of control and 119 % of control.

On to `O=C1C=CC(=O)N1c1ccccc1[N+](=O)[O-]`, for which the T/C (dose: 6.0 mg/kg/injection, schedule: Q01DX009 (ip), vehicle: saline with Tween-80) is 91 % of control.

As for `Cc1cc(NCCCCCCCCNc2cc(C)nc3cc([N+](=O)[O-])ccc23)c2ccc([N+](=O)[O-])cc2n1`, the T/C runs as follows: (dose: 12.5 mg/kg/injection, schedule: Q01DX009 (ip), vehicle: water) 110 % of control; (dose: 25.0 mg/kg/injection, schedule: Q01DX009 (ip), vehicle: water) 101 % of control.

Regarding `O=C1NC(=O)c2c3ccc(c21)CCc1ccc(c2c1C(=O)NC2=O)CC3`, the T/C was 97 % of control under setting [10], 92 % of control under setting [11] and 92 % of control under setting [12].

Take `N#Cc1ccc(NN=NCCCCCl)cc1`: the T/C by setting is: (dose: 3.12 mg/kg/injection, schedule: Q01DX005 (ip), vehicle: distilled water + Tween-80) 94 % of control; (dose: 6.25 mg/kg/injection, schedule: Q01DX005 (ip), vehicle: distilled water + Tween-80) 88 % of control; (dose: 12.5 mg/kg/injection, schedule: Q01DX005 (ip), vehicle: distilled water + Tween-80) 91 % of control; (dose: 25.0 mg/kg/injection, schedule: Q01DX005 (ip), vehicle: distilled water + Tween-80) 94 % of control; (dose: 50.0 mg/kg/injection, schedule: Q01DX005 (ip), vehicle: distilled water + Tween-80) 105 % of control.

With `Cc1ncc([N+](=O)[O-])n1CCSC(Cl)(Cl)Cl`, the T/C was 99 % of control and 112 % of control (dose: 12.5 mg/kg/injection, schedule: Q04DX003 (ip), vehicle: saline); 102 % of control and 111 % of control (dose: 25.0 mg/kg/injection, schedule: Q04DX003 (ip), vehicle: saline); 112 % of control and 118 % of control (dose: 50.0 mg/kg/injection, schedule: Q04DX003 (ip), vehicle: saline); 112 % of control and 89 % of control under setting [6].

For `NC(=S)NN=C(C1CC1)C1CC1`, the T/C was 98 % of control (dose: 6.25 mg/kg/injection, schedule: Q01DX005 (ip), vehicle: Klucel (hydroxypropylcellulose) (HPC)) and 97 % of control (dose: 12.5 mg/kg/injection, schedule: Q01DX005 (ip), vehicle: Klucel (hydroxypropylcellulose) (HPC)).

For `CCN(CC)CCSc1c2ccc(Cl)cc2nc2ccc(OC)cc12`, the T/C was 106 % of control under setting [7]; 106 % of control under setting [8]; 105 % of control and 106 % of control under setting [9].

Regarding `CCCCC(=O)N/N=C/c1ccc([N+](=O)[O-])s1`, the T/C was 95 % of control under setting [10], 99 % of control under setting [11] and 101 % of control under setting [12].

As to `CC(=O)Oc1ccc2c(c1)C(=O)c1nc(C)c(C)nc1C2=O`, the T/C is, setting by setting: (dose: 50.0 mg/kg/injection, schedule: Q01DX005 (ip), vehicle: Klucel (hydroxypropylcellulose) (HPC)) 102 % of control; (dose: 100.0 mg/kg/injection, schedule: Q01DX005 (ip), vehicle: Klucel (hydroxypropylcellulose) (HPC)) 102 % of control; (dose: 200.0 mg/kg/injection, schedule: Q01DX005 (ip), vehicle: Klucel (hydroxypropylcellulose) (HPC)) 109 % of control.

Turning to `c1ccc(C2Nc3ccccc3CO2)cc1` (centres undefined), the T/C runs as follows: (dose: 60.0 mg/kg/injection, schedule: Q01DX005 (ip), vehicle: Klucel (hydroxypropylcellulose) (HPC)) 101 % of control; (dose: 120.0 mg/kg/injection, schedule: Q01DX005 (ip), vehicle: Klucel (hydroxypropylcellulose) (HPC)) 99 % of control; (dose: 240.0 mg/kg/injection, schedule: Q01DX005 (ip), vehicle: Klucel (hydroxypropylcellulose) (HPC)) 99 % of control.

Regarding `C(CCc1nnc2c(n1)CCCC2)Cc1nnc2c(n1)CCCC2`, the T/C was 99 % of control under setting [1] and 88 % of control under setting [2].

Regarding `CCOC(=O)C(Cc1ccc([N+](=O)[O-])cc1)N1C(=O)c2ccccc2C1=O` (centres undefined), the T/C (dose: 50.0 mg/kg/injection, schedule: Q01DX009 (ip), vehicle: distilled water + Tween-80 + alcohol) was 98 % of control; the T/C (dose: 100.0 mg/kg/injection, schedule: Q01DX009 (ip), vehicle: distilled water + Tween-80 + alcohol) was 89 % of control; the T/C (dose: 200.0 mg/kg/injection, schedule: Q01DX009 (ip), vehicle: distilled water + Tween-80 + alcohol) is 92 % of control.

In the case of `CC1CCC(C(C)C)C(NC(=O)C[n+]2cccc(C(N)=O)c2)C1` (centres undefined), the T/C was 99 % of control (dose: 12.5 mg/kg/injection, schedule: Q04DX002 (ip), vehicle: saline); 105 % of control (dose: 25.0 mg/kg/injection, schedule: Q04DX002 (ip), vehicle: saline); 101 % of control (dose: 50.0 mg/kg/injection, schedule: Q04DX002 (ip), vehicle: saline).

Turning to `OCCN(CO)CCO`, the T/C under setting [1] was 117 % of control, the T/C under setting [2] was 123 % of control and the T/C under setting [3] is 115 % of control.

As for `CN(C)c1ccc(N=C2C(c3ccccc3)=[N+]([O-])c3ccccc32)cc1`, the T/C was 93 % of control under setting [1], 93 % of control under setting [2] and 100 % of control under setting [3].

With `Nc1ccc2c(C(F)(F)F)cc(=O)[nH]c2c1`, the T/C by setting is: (dose: 25.0 mg/kg/injection, schedule: Q01DX005 (ip), vehicle: saline with Tween-80) 100 % of control; under setting [4], 91 % of control; under setting [5], 92 % of control.
